These compounds were tested against T1, hNav1.7 (Homo sapiens, UniProt Q15858) (assay: Tritiated sulfonamide binding to membranes from cells expressing hNav1.7 and the β1 subunit (Nav 1.7 ligand binding assay, competitive)). Conditions: competition with 100 pM [3H]compound, room temperature, 18 h.
T1 construct: expressed in transfected cells
Protocol: Tritiated Sulfonamide Binding to Membranes Isolated from Cells that Heterologously Express hNav1.7 and the β1 Subunit
Preparation of membranes containing recombinantly expressed sodium channels: Frozen recombinant cell pellets were thawed on ice and diluted to 4 times the cell pellet weight with ice cold 50 mM Tris HCl, pH 7.4 buffer. The cell suspensions were homogenized on ice using a motorized glass dounce homogeniser. Homogenates were further diluted 8.4 times with ice cold 50 mM Tris HCl, pH 7.4 buffer and then centrifuged at 200×g at 4° C. for 15 min. The supernatants were collected and centrifuged at 10000×g at 4° C. for 50 min. The pellets were then re-suspended in 100 mM NaCl, 20 mM Tris HCl, pH 7.4 buffer containing 1% v/v protease inhibitors (Calbiochem) and re-homogenized on ice. The homogenized membranes were then processed through a syringe equipped with a 26 gauge needle. Protein concentrations were determined by Bradford Assay and the membranes were stored at −80° C.
Radioligand Binding Studies:
Saturation experiments. A competitive NaV1.7 inhibitor having a methyl group was tritiated. Three tritiums were incorporated in place of methyl hydrogens to generate [^3H]compound. Binding of this radioligand was preformed in 5 mL borosilicate glass test tubes at room temperature. Binding was initiated by adding membranes to increasing concentrations of [^3H]compound in 100 mM NaCl, 20 mM Tris HCl, pH 7.4 buffer containing 0.01% w/v bovine serum albumin (BSA) for 18 h. Non-specific binding was determined in the presence of 1 μM unlabelled compound. After 18 h, the reactants were filtered through GF/C glass fiber filters presoaked in 0.5% w/v polyethylene imine Filters were washed with 15 mL ice cold 100 mM NaCl, 20 mM Tris HCl, pH7.4 buffer containing 0.25% BSA to separate bound from free ligand. [^3H]compound bound to filters was quantified by liquid scintillation counting.
Competitive Binding Experiments:
Binding reactions were preformed in 96-well polypropylene plates at room temperature for 18 h. In 360 μL, membranes were incubated with 100 pM [^3H]compound and increasing concentrations of Test Compound. Non-specific binding was defined in the presence of 1 μM unlabelled compound. Reactions were transferred and filtered through 96-well glass fiber/C filter plates presoaked with 0.5% polyethylene imine. The filtered reactions were washed 5 times with 200 μL ice cold buffer containing 0.25% BSA. Bound radioactivity was determined by liquid scintillation counting. Data Analysis: For saturation experiments, non-specific binding was subtracted from total binding to provide specific binding and these values were recalculated in terms of pmol ligand bound per mg protein. Saturation curves were constructed and dissociation constants were calculated using the single site ligand binding model: Beq=(Bmax*X)/(X+Kd), where Beq is the amount of ligand bound at equilibrium, Bmax is the maximum receptor density, Kd is the dissociation constant for the ligand, and X is the free ligand concentration. For competition studies percent inhibition was determined and IC50 values were calculated using a 4 parameter logistic model (% inhibition=(A+((B−A)/(1+((x/C)⨣D)))) using XLfit, where A and B are the maximal and minimum inhibition respectively, C is the IC50 concentration and D is the (Hill) slope.

T1 sequence (Q15858 whole entry): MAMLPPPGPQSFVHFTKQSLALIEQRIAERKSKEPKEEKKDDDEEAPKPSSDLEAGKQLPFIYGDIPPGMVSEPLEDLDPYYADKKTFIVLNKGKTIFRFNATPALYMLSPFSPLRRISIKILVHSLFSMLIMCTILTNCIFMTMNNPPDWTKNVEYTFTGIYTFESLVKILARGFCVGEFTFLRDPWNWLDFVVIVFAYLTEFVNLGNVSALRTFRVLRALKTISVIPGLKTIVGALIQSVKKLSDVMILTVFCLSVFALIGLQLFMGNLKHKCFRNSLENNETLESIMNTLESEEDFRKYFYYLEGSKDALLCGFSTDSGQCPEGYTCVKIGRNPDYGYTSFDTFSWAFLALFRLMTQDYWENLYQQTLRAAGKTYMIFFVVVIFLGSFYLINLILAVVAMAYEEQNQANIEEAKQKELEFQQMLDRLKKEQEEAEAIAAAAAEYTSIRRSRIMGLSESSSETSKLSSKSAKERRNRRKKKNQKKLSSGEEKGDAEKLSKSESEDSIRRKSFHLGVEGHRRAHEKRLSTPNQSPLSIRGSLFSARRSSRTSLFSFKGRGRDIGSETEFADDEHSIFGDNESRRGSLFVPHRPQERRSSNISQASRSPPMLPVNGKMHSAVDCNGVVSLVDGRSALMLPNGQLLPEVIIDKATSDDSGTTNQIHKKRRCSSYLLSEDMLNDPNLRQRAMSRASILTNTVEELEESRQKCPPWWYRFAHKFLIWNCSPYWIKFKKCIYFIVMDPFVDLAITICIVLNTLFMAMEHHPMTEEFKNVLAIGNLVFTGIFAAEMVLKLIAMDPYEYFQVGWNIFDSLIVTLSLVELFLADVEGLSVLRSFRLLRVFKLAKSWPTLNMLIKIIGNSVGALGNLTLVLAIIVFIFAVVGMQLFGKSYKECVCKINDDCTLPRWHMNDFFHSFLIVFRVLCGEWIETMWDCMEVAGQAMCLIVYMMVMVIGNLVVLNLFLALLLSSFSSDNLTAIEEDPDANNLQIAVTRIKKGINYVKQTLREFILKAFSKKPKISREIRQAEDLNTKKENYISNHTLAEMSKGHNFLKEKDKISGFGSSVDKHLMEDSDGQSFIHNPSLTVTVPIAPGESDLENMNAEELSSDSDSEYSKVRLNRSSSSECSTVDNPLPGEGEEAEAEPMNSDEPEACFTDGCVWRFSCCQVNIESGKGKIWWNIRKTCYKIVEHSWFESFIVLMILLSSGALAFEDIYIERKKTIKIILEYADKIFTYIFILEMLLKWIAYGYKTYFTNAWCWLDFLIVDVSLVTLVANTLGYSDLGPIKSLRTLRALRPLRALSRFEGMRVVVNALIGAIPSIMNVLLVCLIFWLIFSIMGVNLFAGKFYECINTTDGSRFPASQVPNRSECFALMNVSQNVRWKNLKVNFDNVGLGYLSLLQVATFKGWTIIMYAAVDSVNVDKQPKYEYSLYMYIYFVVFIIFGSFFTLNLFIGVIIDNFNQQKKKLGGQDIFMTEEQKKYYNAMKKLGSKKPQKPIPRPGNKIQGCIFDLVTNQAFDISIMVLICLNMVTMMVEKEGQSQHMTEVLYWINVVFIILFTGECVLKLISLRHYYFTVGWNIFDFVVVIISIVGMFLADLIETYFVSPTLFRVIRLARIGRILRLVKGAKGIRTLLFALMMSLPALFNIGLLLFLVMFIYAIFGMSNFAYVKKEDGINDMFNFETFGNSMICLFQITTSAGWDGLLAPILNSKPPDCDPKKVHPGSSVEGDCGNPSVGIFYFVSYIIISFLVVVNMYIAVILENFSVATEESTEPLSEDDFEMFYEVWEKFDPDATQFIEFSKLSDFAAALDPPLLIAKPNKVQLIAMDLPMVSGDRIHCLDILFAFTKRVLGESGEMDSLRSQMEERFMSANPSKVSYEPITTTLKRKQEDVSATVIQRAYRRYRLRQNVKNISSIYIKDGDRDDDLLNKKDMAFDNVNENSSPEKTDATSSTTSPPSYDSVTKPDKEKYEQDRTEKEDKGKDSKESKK
T1 sequence (Q07699 19-218 partner): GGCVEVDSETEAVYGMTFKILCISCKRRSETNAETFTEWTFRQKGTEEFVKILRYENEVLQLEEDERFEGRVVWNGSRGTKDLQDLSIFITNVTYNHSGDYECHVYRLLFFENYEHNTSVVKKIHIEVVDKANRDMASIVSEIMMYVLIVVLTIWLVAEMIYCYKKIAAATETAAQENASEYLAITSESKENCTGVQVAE

SMILES	IC50 [nM]
CS(=O)(=O)NC(=O)c1cc(C2CC2)c(OCC2CCN(Cc3cc(Cl)cc(C(F)(F)F)c3C#N)CC2)cc1F [Example 4, 4-((1-(5-Chloro-2-cyano-3-(trifluoromethyl)benzyl)piperidin-4-yl)methoxy)-5-cyclopropyl-2-fluoro-N-(methylsulfonyl)benzamide]	6.6
CS(=O)(=O)NC(=O)c1cc(C2CC2)c(OCC2(F)CCN(Cc3ccc(F)c(Cl)c3)CC2)cc1F [Example 31, 4-((1-(3-Chloro-4-fluorobenzyl)-4-fluoropiperidin-4-yl)methoxy)-5-cyclopropyl-2-fluoro-N-(methylsulfonyl)benzamide]	5.3
CS(=O)(=O)NC(=O)c1cc(C2CC2)c(OCC2CCN([C@H](c3cc(Cl)cc(Cl)c3)C3COC3)CC2)cc1F (single isomer, unassigned) [Example 34]	9.9
CCS(=O)(=O)NC(=O)c1cc(C2CC2)c(OCC2CCN([C@H](C)c3cc(Cl)cc(Cl)c3F)CC2)cc1F (single isomer, unassigned) [Example 33]	2.4
O=C(NS(=O)(=O)C1CC1)c1cc(C2CC2)c(OCC2(F)CCN(c3cc(C(F)(F)F)c(Cl)cn3)CC2)cc1F [Example 59, 4-((1-(5-chloro-4-(trifluoromethyl)pyridin-2-yl)-4-fluoropiperidin-4-yl)methoxy)-5-cyclopropyl-N-(cyclopropylsulfonyl)-2-fluorobenzamide]	9.3
CS(=O)(=O)NC(=O)c1ccc(OCC2CCN(Cc3cc(C(F)(F)F)ccc3Cl)CC2)c(C2CC2)c1 [Example 60, 4-((1-(2-chloro-5-(trifluoromethyl)benzyl)piperidin-4-yl)methoxy)-3-cyclopropyl-N-(methylsulfonyl)benzamide]	8.1
C[C@@H](c1cc(Cl)cc(Cl)c1C#N)N1CCC(COc2cc(F)c(C(=O)NS(C)(=O)=O)cc2C2CC2)CC1 (single isomer, unassigned) [Example 2]	5.5
CC(c1cc(Cl)cc(C2CC2)n1)N1CCC(COc2cc(F)c(C(=O)NS(C)(=O)=O)cc2C2CC2)CC1 (centres unmarked) [Example 46, 4-((1-(1-(4-chloro-6-cyclopropylpyridin-2-yl)ethyl)piperidin-4-yl)methoxy)-5-cyclopropyl-2-fluoro-N-(methylsulfonyl)benzamide]	12
CC(c1cc(Cl)cc(C2CC2)n1)N1CCC(COc2cc(F)c(C(=O)NS(=O)(=O)C3CC3)cc2C2CC2)CC1 (centres unmarked) [Example 47, 4-((1-(1-(4-chloro-6-cyclopropylpyridin-2-yl)ethyl)piperidin-4-yl)methoxy)-5-cyclopropyl-N-(cyclopropylsulfonyl)-2-fluorobenzamide]	9.9
CC(C)(C#N)[C@H](c1cc(Cl)cc(Cl)c1)N1CCC(COc2cc(F)c(C(=O)NS(C)(=O)=O)cc2C2CC2)CC1 (single isomer, unassigned) [Example 11]	4.2
CCS(=O)(=O)NC(=O)c1cc(C2CC2)c(OCC2(OC)CCN(Cc3cc(Cl)cc(Cl)c3)CC2)cc1F [Example 10, 5-Cyclopropyl-4-((1-(3,5-dichlorobenzyl)-4-methoxypiperidin-4-yl)methoxy)-N-(ethylsulfonyl)-2-fluorobenzamide]	9
C[C@@H](c1cc(Cl)cc(Cl)c1)N1CCC(F)(COc2cc(F)c(C(=O)NS(=O)(=O)N3CCC3)cc2C2CC2)CC1 [Example 58, (S)—N-(azetidin-1-ylsulfonyl)-5-cyclopropyl-4-((1-(1-(3,5-dichlorophenyl)ethyl)-4-fluoropiperidin-4-yl)methoxy)-2-fluorobenzamide]	5.6
C[C@@H](c1cc(Cl)c(F)c(Cl)c1)N1CCC(COc2cc(F)c(C(=O)NS(C)(=O)=O)cc2C2CC2)CC1 (single isomer, unassigned) [Example 38]	3.1
C[C@H](c1ccc(Cl)c(Cl)c1)N1CCC(F)(COc2cc(F)c(C(=O)NS(C)(=O)=O)cc2C2CC2)CC1 (single isomer, unassigned) [Example 23]	6.4
CC(c1cc(C(F)(F)F)cc(C2CC2)n1)N1CCC(COc2cc(F)c(C(=O)NS(=O)(=O)C3CC3)cc2C2CC2)CC1 (centres unmarked) [Example 51, 5-cyclopropyl-4-((1-(1-(6-cyclopropyl-4-(trifluoromethyl)pyridin-2-yl)ethyl)piperidin-4-yl)methoxy)-N-(cyclopropylsulfonyl)-2-fluorobenzamide]	11
CS(=O)(=O)NC(=O)c1cc(C2CC2)c(OCC2(F)CCN(Cc3cc(F)cc(Cl)c3)CC2)cc1F [Example 30, 4-((1-(3-Chloro-5-fluorobenzyl)-4-fluoropiperidin-4-yl)methoxy)-5-cyclopropyl-2-fluoro-N-(methylsulfonyl)benzamide]	4.9
C[C@@H](c1ccc(Cl)c(F)c1)N1CCC(COc2cc(F)c(C(=O)NS(C)(=O)=O)cc2C2CC2)CC1 (single isomer, unassigned) [Example 40]	6.6
CS(=O)(=O)NC(=O)c1cc(C2CC2)c(OCC2(F)CCN(Cc3cc(C(F)(F)F)cc(C4CC4)n3)CC2)cc1F [Example 43, 5-cyclopropyl-4-((1-((6-cyclopropyl-4-(trifluoromethyl)pyridin-2-yl)methyl)-4-fluoropiperidin-4-yl)methoxy)-2-fluoro-N-(methylsulfonyl)benzamide]	9.8
O=C(NS(=O)(=O)N1CCC1)c1cc(C2CC2)c(O[C@H]2CCCN(Cc3ccc(F)cc3Cl)C2)cc1F [Example 41, (S)—N-(azetidin-1-ylsulfonyl)-4-((1-(2-chloro-4-fluorobenzyl)piperidin-3-yl)oxy)-5-cyclopropyl-2-fluorobenzamide]	140
C[C@H](c1cc(Cl)c(F)c(Cl)c1)N1CCC(COc2cc(F)c(C(=O)NS(C)(=O)=O)cc2C2CC2)CC1 (single isomer, unassigned) [Example 37]	3
CS(=O)(=O)NC(=O)c1cc(C2CC2)c(OCC2(F)CCN(Cc3ccc(F)cc3Cl)CC2)cc1F [Example 29, 4-((1-(2-Chloro-4-fluorobenzyl)-4-fluoropiperidin-4-yl)methoxy)-5-cyclopropyl-2-fluoro-N-(methylsulfonyl)benzamide]	4.2
C[C@H](c1cc(Cl)cc(Cl)c1C#N)N1CCC(COc2cc(F)c(C(=O)NS(C)(=O)=O)cc2C2CC2)CC1 (single isomer, unassigned) [Example 1]	8.8
CS(=O)(=O)NC(=O)c1cc(C2CC2)c(OCC2(F)CCN(Cc3ncc(C(F)(F)F)cc3Cl)CC2)cc1F [Example 42, 4-((1-((3-chloro-5-(trifluoromethyl)pyridin-2-yl)methyl)-4-fluoropiperidin-4-yl)methoxy)-5-cyclopropyl-2-fluoro-N-(methylsulfonyl)benzamide]	19
CS(=O)(=O)NC(=O)c1ccc(OCC2CCN(Cc3cc(C(F)(F)F)cc(Cl)c3F)CC2)c(C2CC2)c1 [Example 62, 4-((1-(3-chloro-2-fluoro-5-(trifluoromethyl)benzyl)piperidin-4-yl)methoxy)-3-cyclopropyl-N-(methylsulfonyl)benzamide]	9.8
C[C@H](c1ccc(F)c(Cl)c1)N1CCC(F)(COc2cc(F)c(C(=O)NS(C)(=O)=O)cc2C2CC2)CC1 (single isomer, unassigned) [Example 27]	8.6
COC1(COc2cc(F)c(C(=O)NS(C)(=O)=O)cc2C2CC2)CCN(Cc2cc(C(F)(F)F)cc(Cl)c2F)CC1 [Example 7, 4-((1-(3-Chloro-2-fluoro-5-(trifluoromethyl)benzyl)-4-methoxypiperidin-4-yl)methoxy)-5-cyclopropyl-2-fluoro-N-(methylsulfonyl)benzamide]	7.9
C[C@@H](c1ccc(F)c(Cl)c1)N1CCC(F)(COc2cc(F)c(C(=O)NS(C)(=O)=O)cc2C2CC2)CC1 (single isomer, unassigned) [Example 26]	4.7
C[C@H](c1ccc(Cl)c(F)c1)N1CCC(COc2cc(F)c(C(=O)NS(C)(=O)=O)cc2C2CC2)CC1 (single isomer, unassigned) [Example 39]	4.6
COc1c(Cl)cc(Cl)cc1CN1CCC(COc2cc(F)c(C(=O)NS(C)(=O)=O)cc2C2CC2)CC1 [Example 14, 5-Cyclopropyl-4-((1-(3,5-dichloro-2-methoxybenzyl)piperidin-4-yl)methoxy)-2-fluoro-N-(methylsulfonyl)benzamide]	6.5
